Our source for the Ki values is ChEMBL document CHEMBL1136137, “Ring substituted analogues of 5-aminomethyl-10,11-dihydro-dibenzo[a,d]cycloheptene (AMDH): potential modes of binding to the 5-HT(2A) receptor” (Bioorg Med Chem Lett, 2003).

The structures appear in SMILES notation.

The target in the test is 5-hydroxytryptamine receptor 2A (Rattus norvegicus, UniProt P14842). In words: Binding affinity towards 5-hydroxytryptamine 2A receptor sites by using [3H]ketanserin as radioligand.
Sequence of 5-hydroxytryptamine receptor 2A (P14842 whole entry): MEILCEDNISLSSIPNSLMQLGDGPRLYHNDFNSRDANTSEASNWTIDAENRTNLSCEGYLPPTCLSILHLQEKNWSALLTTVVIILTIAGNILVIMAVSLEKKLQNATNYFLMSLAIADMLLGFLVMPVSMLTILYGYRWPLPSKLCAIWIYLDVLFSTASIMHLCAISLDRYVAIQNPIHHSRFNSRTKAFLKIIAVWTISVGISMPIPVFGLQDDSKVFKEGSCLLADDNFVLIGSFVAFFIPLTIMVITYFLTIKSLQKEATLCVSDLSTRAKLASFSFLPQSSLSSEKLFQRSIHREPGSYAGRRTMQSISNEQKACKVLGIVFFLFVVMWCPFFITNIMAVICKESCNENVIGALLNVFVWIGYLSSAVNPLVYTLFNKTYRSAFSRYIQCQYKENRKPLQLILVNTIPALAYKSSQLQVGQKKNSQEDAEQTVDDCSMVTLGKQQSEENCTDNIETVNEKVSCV

A word on the Ki: it is the equilibrium dissociation constant of an inhibitor or competing ligand from its target. In turn, `CCCCCCc1cc(OC)c(CC(C)N)cc1OC` (stereo unspecified) had a Ki of 2.5 nM.

`COc1ccc2c(c1)CCc1ccccc1C2CN` (stereo unspecified) yielded a Ki of 800 nM.

In the case of `CCCCCCc1ccc2c(c1)CCc1ccccc1C2CN` (stereo unspecified), the Ki was 630 nM.

On to `COc1ccc2c(c1)Cc1ccccc1C2CN` (stereo unspecified), for which the Ki turned out to be 7.5 nM. This Ki is about 84-fold lower than that of the compound before.

The compound `NCC1c2ccccc2Cc2cc(CCCc3ccccc3)ccc21` (stereo unspecified) returned a Ki of 3.2 nM.

Consider `COc1cc(CC(C)N)c(OC)cc1CCCc1ccccc1` (stereo unspecified), for which the affinity, expressed as Ki, was 10 nM.

Regarding `COc1cc(OC)c(OC)cc1CC(C)N` (stereo unspecified), the affinity, expressed as Ki, was 1200 nM.

Take `NCC1c2ccccc2CCc2cc(CCCc3ccccc3)ccc21` (stereo unspecified): affinity was put at a Ki of 81 nM.

`NCC1c2ccccc2Cc2cc(Br)ccc21` (stereo unspecified) registered an inhibition constant (Ki) of 1.3 nM.

Take `CCCCCCc1ccc2c(c1)Cc1ccccc1C2CN` (stereo unspecified): the affinity corresponds to a Ki of 7 nM.

As for `NCC1c2ccccc2CCc2cc(Br)ccc21` (stereo unspecified), the affinity, expressed as Ki, was 37 nM. This Ki is about 5.3-fold higher than that of the compound before.
